From patent US20110151020A1, “ACTIVE SUBSTANCE COMBINATION WITH GEMCITABINE FOR THE TREATMENT OF EPITHELIAL CANCER” (priority 2008, published 2011)
Entries after “also recorded” stand apart in the source; their conditions may differ. Like-named read-outs stand apart in the source and are kept apart here.

Columns and labels:
[1] = tested on: CD133+ cancer stem cells in tumour cell lines; assay: CD133 content by flow cytometry in tumour cell lines after 48 hours of in-vitro treatment; assay type: cell-based, human
Method: As a first step the content of cancer stem cells (measured as “CD 133-content”) in the whole population of tumour cells was measured by flow cytometry (FIGS. 1A-1C).
As a first step the content of cancer stem cells (measured as “CD 133-content”) within the entire tumour cell population was measured by flow cytometry (FIGS. 10A-10C).

CSC population = conditions: fraction of original population remaining; cited from earlier work
[2] = tested on: L3.6pl pancreatic cancer cells; assay: Tumorigenicity after in vitro pre-treatment and orthotopic implantation; assay type: in vivo, mice
Method: After 96 hours of pretreatment, the remaining viable cells were orthotopically implanted into the pancreas of mice, which received no further treatment in vivo.
Cultivated pancreatic cancer cells were exposed to either Gemcitabine alone representing clinical standard therapy, SB431542 alone, or a combination of Gemcitabine and SB431542 in the above given respective concentrations. After 96 hours of pretreatment, the remaining viable cells were orthotopically implanted into the pancreas of mice, which received no further treatment in vivo.
A prerequisite of CSC is their ability to form tumours in secondary recipients. Due to the limited number of cancer (stem) cells that can be obtained from primary tissues, it is virtually impossible to reproducibly perform in vivo treatment experiments with fresh patient-derived cells. Therefore, all subsequent in vivo experiments were performed with the established L3.6pl pancreatic cancer cells. The design of the experiment is illustrated in FIG. 20A. […] After 4 days of pretreatment, the surviving cells were orthotopically implanted into the pancreas, which received no further in vivo treatment. Tumorigenicity was first determined by PET scans on day 30 (FIGS. 20B, 20C; left panel) and by final macroscopic and microscopic histological evaluation on day 35 (FIGS. 20B, 20C; right panel).
Animals and Orthotopic Implantation of Tumour Cells. Single-cell suspensions were orthotopically implanted into the pancreas of female NMRI nu/nu mice (Janvier, Le Genest-Saint-Isle, France) (Hermann et al., 2007, supra). Size and weight of the pancreatic tumours were monitored.
(§1) In vitro treatment of pancreatic cancer cells. […] For the evaluation of the in vivo tumorigenicity, […] L3.6pl cells were pretreated with the respective regimen and the remaining viable cells were orthotopically implanted into the pancreas of nude mice and evaluated on day 35. For the systemic infusion assay, cells were labelled with the Qtracker 800 labelling kit (Invitrogen) according to the manufacturer's instructions, and 5×10^5 cells were injected intravenously into mice. After 4 weeks, explanted lungs were scanned for metastases with a near-infrared imaging platform (Odyssey, Li-cor, Lincoln, Nebr.). Positive signals were verified by histology (H&E staining).

[3] = tested on: CD133+ pancreatic cancer stem cells (L3.6pl cells); assay: CD133 content by flow cytometry in L3.6pl pancreatic cancer cells; assay type: cell-based, human; conditions: for CD133 content of L3.6pl cells: Example 4.2, inhibitor alone or with Gemcitabine
Method: In this experiment, potentially effective substances for the targeted elimination of CD133^+ pancreatic cancer stem cells (CSC) were screened by means of flow cytometry following 48 hours of therapy. […] As a Gemcitabine concentration of 100 ng/ml was the lowest concentration capable of achieving a strong relative enrichment for CD133^+ cells through depletion of CD133^− cells, this concentration was chosen for subsequent experiments.
(§2) Human pancreatic cancer cell line. The highly metastatic human pancreatic cell line L3.6pl was maintained in DMEM medium (Invitrogen, Karlsruhe, Germany) with 12% Fetal Calf Serum (Biochrom, Berlin, Germany), Glutamax (Invitrogen), non-essential amino acids, and vitamins (all from PAN, Aidenbach, Germany) (Hermann et al., 2007, supra). Cultures were kept no longer than 4 weeks after recovery from frozen stocks. CSC spheres were cultured in DMEM-F12 supplemented with B27 (Gibco, Karlsruhe, Germany) and FGF-2 (PeproTech EC, London, United Kingdom) (Hermann et al., 2007, supra).
Cytometry. Pancreatic CSC were identified by CD133/1-APC or CD133-PE (Miltenyi, Bergisch-Gladbach, Germany) (Hermann et al., 2007, supra). Side population experiments were performed as described by Goodell et al. (1996) (see Goodell et al., 1996, J Exp Med 183, 1797-1806) and cells were identified by exclusion of the vital dye Hoechst 33342. To detect activation of the PI3K/Akt/mTOR pathway by means of the phosphorylation status of the s6 ribosomal protein (s6rp), cells cultivated with standard medium were stained with a rabbit anti-phospho-S6 ribosomal protein antibody (Cell Signalling Technology, Danvers, Mass.).
as §1
(§3) Using SB431542, a specific inhibitor of the receptors for Nodal and Activin, ALK-4 and -7 respectively, it was investigated whether the content of the CD133(+) population is affected by inhibition of Activin/Nodal signaling. As mutations affecting the TGF-superfamily pathway are very common in pancreatic neoplasms, pancreatic cell lines harboring different mutations in this pathway were screened (Table 1).

pancreatic CSC spheres = assay: CSC-enriched tumour sphere assay; assay type: cell-based, human; conditions: ultra low adhesion 6-well plates
Method: First, pancreatic CSC were clonally expanded as CSC-enriched spheres (FIGS. 18C1-18C5). Floating spheres were treated in ultra low adhesion 6-well plates. After completion of the treatment, five randomly selected high-power fields were analyzed.
as §2

BxPC3 cells = assay: CD133 content by flow cytometry in BxPC3 cells; assay type: cell-based, human
From the text: as §3, with “1). […] Without being bound thereto, this indicates a Nodal/[…] mediated pathway being independent from SMAD4 as an underlying mechanism.” for “1).”

MiaPaca cells = assay: CD133 content by flow cytometry in MiaPaCa cells; assay type: cell-based, human
From the text: as §3, with “1). […] Without being bound thereto, this indicates a Nodal/[…] mediated pathway being independent from SMAD4 as an underlying mechanism.” for “1).”

[4] = tested on: primary human pancreatic cancer cells; assay: Sphere formation in primary human pancreatic cancer cells; assay type: cell-based
Alk4/7 = assay: Smad2 phosphorylation after recombinant Nodal; assay type: cell-based
[5] = tested on: primary human pancreatic cancer tissue; assay: In vivo treatment of implanted patient pancreatic tumor tissue with gemcitabine plus SB431542; set-up: species or system mice; conditions: mouse, in vivo
Method: FIG. 33: In vivo treatment with the Alk4/7 inhibitor SB431542. This illustrates Nodal/Activin inhibition to eliminate primary human pancreatic CSC in vivo. Tumor tissue from patient with pancreatic cancer was implanted into immunocompromised mice. Treatment was started on day 7 after implantation. Mice were randomized to gemcitabine alone or gemcitabine plus SB431542. Tumor growth was assessed on day 28.

CD133-positive cells = assay: Cell cycle / apoptosis of CD133-positive cells (BrDU flow kit); assay type: cell-based
From the text: As the precise fate of CD133-positive cells during treatment with antagonists of Activin or Nodal was to be assessed, the cell cycle of these cells was investigated using a BrDU flow kit (see FIGS. 26A-26G).

CD133 positive CSC = assay: CD133 positive population after extracellular antagonists of Nodal and Activin A; assay type: cell-based
From the text: Furthermore, cells in culture were subjected to extracellular antagonists of Nodal (Lefty) and Activin A (Follistatin) to see whether both components are functionally relevant for the maintenance of the CD133 positive CSC compartment.

[6] = tested on: sphere derived cells (185s); assay: Soft agar colony formation assay; assay type: cell-based; conditions: soft agar assay 14d
From the text: FIGS. 31A-D: show a Gain of function by Nodal stimulation—Sphere derived cells (185s) bear a higher colony forming capacity as compared to adherent cells (185) as evidence for an enrichment in cancer stem cells (in a soft agar assay 14d).

[7] = 5 μM SB431542, 100 ng/ml Gemcitabine, ALK5 inhibitor SB-505124

## CC1=C2C[C@H]3[C@@H](CC=C4C[C@@H](O)CC[C@@]43C)[C@@H]2CC[C@]12O[C@@H]1C[C@H](C)CN[C@H]1[C@H]2C [Cyclopamine, 11-deoxojervine]
[1]; 100 ng/ml Gemcitabine, 100 ng/ml Rapamycin, 10 μM Cyclopamine, separately or triple combination
  content of cancer stem cells (CD 133-content): None of the investigated molecules (Gemcitabine, Rapamycin and Cyclopamine) was capable of significantly reducing
CSC population
  reduction of the original CSC population (aldehyde dehydrogenase marker): ⅓
[2]; 4 days of pretreatment, PET day 30, histology day 35
  tumour take rate / tumorigenicity: neither Cyclopamine nor Rapamycin monotherapy significantly affected tumour take rates
[3]; 48 hours of therapy, Gemcitabine 100 ng/ml
  CD133+ cell content: moderate, albeit significant decrease
[3]; inhibitor alone, CUR199691 10 μM
  CD133 content: 55%
Pancreatic CSC spheres
  tumour spheres / CD133+ cells in CSC-enriched spheres: reduction of tumour spheres

## Cc1cccc(-c2[nH]c(C(C)(C)C)nc2-c2ccc3c(c2)OCO3)n1 [SB505124]
[1]; [7]
  content of cancer stem cells (CD 133-content): did not lead to significant reduction
[3]
  CD133 content of L3.6pl cells: neither alone nor in combination with Gemcitabine an effect

## NC(=O)c1ccc(-c2nc(-c3ccc4c(c3)OCO4)c(-c3ccccn3)[nH]2)cc1 [SB431542]
[1]; [7]
  content of cancer stem cells (CD 133-content): significant reduction
[2]; 96 hours pretreatment, 100 ng/ml Gemcitabine, 5 μM SB431542
  tumorigenicity after in vitro pre-treatment: close to no effect; also recorded: did not affect the tumorigenicity
BxPC3 cells
  CD133 content of BxPC3 cells: no response
MiaPaca cells
  CD133(+) sub-population of MiaPaca cells: decrease
[3]; 24 hours after withdrawal
  CD133 content 24 hours after withdrawal of therapy: already started to approach control level
[3]; 48 h after withdrawal
  CD133 content 48 h after withdrawal of therapy: enrichment for CD133 compared to base level
[3]
  CD133 content of L3.6pl cells: decrease; also recorded: drastically reduced
[4]
  cell viability (dapi staining): did not affect cell viability
  sphere formation: in a dose-dependent manner reduced sphere formation
Alk4/7
  phosphorylation of Smad2 (pSmad2): abrogated this increase in pSmad2
[5]
  body weight: lack of change
  severe side effects: did not result in severe side effects
  white blood cell counts (WBC): lack of change
CD133-positive cells
  induction of apoptosis in CD133-positive cells: modest induction of apoptosis

B1: Folistatin: single chain glycoprotein, inhibitor of Activin signaling (protein, UniProt P19883 30-344, looked up)
Follistatin: GNCWLRQAKNGRCQVLYKTELSKEECCSTGRLSTSWTEEDVNDNTLFKWMIFNGGAPNCIPCKETCENVDCGPGKKCRMNKKNKPRCVCAPDCSNITWKGPVCGLDGKTYRNECALLKARCKEQPELEVQYQGRCKKTCRDVFCPGSSTCVVDQTNNAYCVTCNRICPEPASSEQYLCGNDGVTYSSACHLRKATCLLGRSIGLAYEGKCIKAKSCEDIQCTGGKKCLWDFKVGRGRCSLCDELCPDSKSDEPVCASDNATYASECAMKEAACSSGVLLEVKHSGSCNSISEDTEEEEEDEDQDYSFPISSILEW
CD133 positive CSC
  CD133 positive CSC population: reduction of CD133 positive CSC that was similar to the reduction seen for Lefty
CD133 positive CSC; listed as folistatin
  CD133 positive CSC population: reduction of CD133 positive cancer stem cells

B2: recombinant Nodal: recombinant Nodal, member of the TGF-β superfamily, used as stimulus (protein, UniProt Q96S42 238-347, looked up)
Nodal homolog: HHLPDRSQLCRKVKFQVDFNLIGWGSWIIYPKQYNAYRCEGECPNPVGEEFHPTNHAYIQSLLKRYQPHRVPSTCCAPVKTKPLSMLYVDNGRVLLDHHKDMIVEECGCL
Alk4/7
  phosphorylation of Smad2 (pSmad2): increased phosphorylation of downstream Smad2
[6]
  colony formation: further increase in colony formation
